Literature values in patent US20250161397A1, “PLANT BASED FORMULATION FOR FAST PAIN RELIEF AND PREPARATION METHOD” (ARJUNA NATURAL PRIVATE LIMITED, priority 2022, published 2025).

Tests used:
5-LOX = target: T1, 5-LOX (Homo sapiens, UniProt P09917); conditions: literature
T1 sequence (P09917 1-674): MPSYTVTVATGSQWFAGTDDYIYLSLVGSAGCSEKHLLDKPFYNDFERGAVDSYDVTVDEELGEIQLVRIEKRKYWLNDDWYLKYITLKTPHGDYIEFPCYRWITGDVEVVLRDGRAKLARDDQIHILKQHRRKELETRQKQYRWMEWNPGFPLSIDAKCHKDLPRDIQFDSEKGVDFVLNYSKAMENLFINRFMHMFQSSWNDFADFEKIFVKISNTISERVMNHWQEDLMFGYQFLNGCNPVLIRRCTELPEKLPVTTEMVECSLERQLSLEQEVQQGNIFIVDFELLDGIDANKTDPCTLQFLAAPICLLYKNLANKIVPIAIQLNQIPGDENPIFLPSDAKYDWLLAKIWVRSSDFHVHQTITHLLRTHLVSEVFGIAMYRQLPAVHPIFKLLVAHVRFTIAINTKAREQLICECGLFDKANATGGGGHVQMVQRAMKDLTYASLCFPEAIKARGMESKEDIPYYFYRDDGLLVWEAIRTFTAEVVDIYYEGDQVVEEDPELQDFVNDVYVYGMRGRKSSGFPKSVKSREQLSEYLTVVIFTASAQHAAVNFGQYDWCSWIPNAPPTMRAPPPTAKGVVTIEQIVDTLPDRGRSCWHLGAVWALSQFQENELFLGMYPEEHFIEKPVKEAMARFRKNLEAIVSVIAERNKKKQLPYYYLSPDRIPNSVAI

COX-1 [1] = target: COX-1 (Homo sapiens, UniProt P23219); conditions: Siemoneit 2008
Sequence of COX-1 (Homo sapiens, UniProt P23219) (P23219 24-599): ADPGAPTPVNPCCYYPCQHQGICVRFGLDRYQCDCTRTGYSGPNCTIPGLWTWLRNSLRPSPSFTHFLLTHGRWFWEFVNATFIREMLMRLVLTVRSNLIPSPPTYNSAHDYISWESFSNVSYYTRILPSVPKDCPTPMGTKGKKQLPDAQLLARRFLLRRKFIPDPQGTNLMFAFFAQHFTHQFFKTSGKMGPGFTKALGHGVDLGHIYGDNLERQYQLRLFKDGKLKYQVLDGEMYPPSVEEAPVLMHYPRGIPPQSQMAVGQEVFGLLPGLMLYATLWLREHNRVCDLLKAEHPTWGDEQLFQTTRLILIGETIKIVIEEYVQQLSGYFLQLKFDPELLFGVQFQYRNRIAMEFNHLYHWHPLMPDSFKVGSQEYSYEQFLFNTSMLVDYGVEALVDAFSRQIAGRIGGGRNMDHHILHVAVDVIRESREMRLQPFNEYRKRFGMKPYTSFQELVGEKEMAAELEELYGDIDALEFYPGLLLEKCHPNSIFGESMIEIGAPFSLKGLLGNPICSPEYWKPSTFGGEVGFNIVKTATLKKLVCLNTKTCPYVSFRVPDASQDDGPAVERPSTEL

COX-2 [2] = target: T2, COX-2 (Homo sapiens, UniProt P35354); conditions: Siemoneit 2008
T2 sequence (P35354 18-604): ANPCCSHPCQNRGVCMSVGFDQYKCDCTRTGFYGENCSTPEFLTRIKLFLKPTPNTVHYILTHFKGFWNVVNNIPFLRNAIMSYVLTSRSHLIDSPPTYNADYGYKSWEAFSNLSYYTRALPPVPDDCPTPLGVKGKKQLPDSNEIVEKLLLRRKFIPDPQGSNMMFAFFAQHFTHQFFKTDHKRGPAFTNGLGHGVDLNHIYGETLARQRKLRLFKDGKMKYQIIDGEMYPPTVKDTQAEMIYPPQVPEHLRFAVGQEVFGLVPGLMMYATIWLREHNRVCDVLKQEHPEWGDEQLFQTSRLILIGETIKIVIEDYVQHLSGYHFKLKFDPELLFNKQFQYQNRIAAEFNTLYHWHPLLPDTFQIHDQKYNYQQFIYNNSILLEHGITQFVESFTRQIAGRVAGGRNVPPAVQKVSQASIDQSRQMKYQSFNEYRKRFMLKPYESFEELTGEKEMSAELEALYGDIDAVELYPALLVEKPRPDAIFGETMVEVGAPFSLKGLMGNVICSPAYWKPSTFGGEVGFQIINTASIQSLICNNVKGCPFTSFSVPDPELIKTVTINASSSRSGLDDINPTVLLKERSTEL

COX-1 [3] = conditions: Goel 2001
12/15 LOX = target: T3, 12/15 LOX (Rattus norvegicus, UniProt Q02759); conditions: in vitro, rat lung cytosolic fraction; Bezáková 2014
T3 construct: from tissue; host or cells: rat lung cytosolic fraction
T3 sequence (Q02759 1-663): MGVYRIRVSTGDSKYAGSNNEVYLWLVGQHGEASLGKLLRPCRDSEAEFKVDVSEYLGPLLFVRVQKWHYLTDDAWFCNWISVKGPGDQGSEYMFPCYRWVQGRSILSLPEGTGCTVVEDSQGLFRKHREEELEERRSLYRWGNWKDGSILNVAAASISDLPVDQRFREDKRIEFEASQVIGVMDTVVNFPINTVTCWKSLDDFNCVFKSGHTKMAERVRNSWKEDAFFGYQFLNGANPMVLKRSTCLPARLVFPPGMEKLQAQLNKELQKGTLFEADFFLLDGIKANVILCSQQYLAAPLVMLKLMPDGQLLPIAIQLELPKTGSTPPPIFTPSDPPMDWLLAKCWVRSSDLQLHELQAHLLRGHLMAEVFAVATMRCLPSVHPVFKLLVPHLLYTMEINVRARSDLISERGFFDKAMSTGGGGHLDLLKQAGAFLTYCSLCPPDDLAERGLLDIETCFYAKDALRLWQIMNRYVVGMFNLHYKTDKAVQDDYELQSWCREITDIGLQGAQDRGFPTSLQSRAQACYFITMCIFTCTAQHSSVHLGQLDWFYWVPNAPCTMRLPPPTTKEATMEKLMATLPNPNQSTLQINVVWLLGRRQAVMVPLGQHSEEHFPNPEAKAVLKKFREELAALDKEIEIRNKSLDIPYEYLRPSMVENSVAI

COX-2 [4] = conditions: HT-29 human colon cancer cells; Goel 2001

CC(=O)O[C@@H]1CC[C@@]2(C)[C@@H](CC[C@]3(C)[C@@H]2C(=O)C=C2[C@@H]4[C@@H](C)[C@H](C)CC[C@]4(C)CC[C@]23C)[C@@]1(C)C(=O)O [AKBA, acetyl-11-keto-β-boswellic acid]
inhibition of 5-LOX (5-LOX): good inhibition of 5-LOX | inhibition of COX-1 (COX-1 [1]): reversible inhibition of COX-1 | inhibition of COX-2 (COX-2 [2]): less efficiently inhibited by AKBA as compared to COX-1

COc1cc(/C=C/C(=O)CC(=O)/C=C/c2ccc(O)c(OC)c2)ccc1O [Curcumin, curcumin]
effect on mRNA and protein expression of COX-1 (COX-1 [3]): not COX-1 | inhibition of 12/15 LOX (12/15 LOX): competitive inhibitor of 12/15 LOX | inhibition of 5-LOX (5-LOX): bind to the active site of 5-LOX and inhibit its activity | effect on mRNA and protein expression of COX-2 (COX-2 [4]): inhibit the mRNA and protein expression of COX-2
